Literature values in patent US11529445B2, “Methods and apparatus for kidney dialysis and extracorporeal detoxification” (HIBAR Microsciences LLC, priority 2013, dated 2022).

Test system: Connexin-43
Conditions: cell culture models; concentrations commonly found among ESRD patients

## Cc1ccc(O)cc1 [p-cresol]
  degradation of Connexin-43 within cardiac gap junctions: dose-dependent degradation of Connexin-43
